Literature values as cited in PMC11859340, “The Therapeutic Potential of Spirooxindoles in Cancer: A Focus on p53–MDM2 Modulation” (Pharmaceuticals, 2025).
Where two headings read alike, the source gives them in different places.

Experiments:
MCF7 = tested on: MCF7; design: method as in PMID 29210587; details: at 20 μM, MTT
ZR-75-1 (wild-type p53) = tested on: ZR-75-1 (wild-type p53); design: method as in PMID 29210587; details: at 20 μM, MTT
[1] = tested on: BT-474 (mutated-type p53); design: method as in PMID 29210587; details: at 20 μM, MTT
MDM2 [2] = tested on: MDM2; design: method as in PMID 29210587; details: at 20 μM, HTRF method
lung A549 = tested on: lung A549; design: method as in PMID 31047751; details: CCK-8
breast MCF7 = tested on: breast MCF7; design: method as in PMID 31047751; details: CCK-8
colon HCT116 = tested on: colon HCT116; design: method as in PMID 31047751; details: CCK-8
MDM2 [3] = target: MDM2; design: method as in PMID 31047751; details: fluorescence polarization assay; read-out: Ki, MDM2 inhibitory effect
HCT116 (colon) [4] = tested on: HCT116 (colon); design: method as in PMID 30802707; details: MTT; read-out: IC50 against HCT116
HepG2 (liver) [5] = tested on: HepG2 (liver); design: method as in PMID 30802707; details: MTT; read-out: IC50 against HepG2
PC-3 (prostate) = tested on: PC-3 (prostate); design: method as in PMID 30802707; details: MTT; read-out: IC50 against PC-3
HCT116 (colon) [6] = tested on: HCT116 (colon); design: method as in PMID 30508794; details: MTT; read-out: IC50 against HCT116
HepG2 (liver) [7] = tested on: HepG2 (liver); design: method as in PMID 30508794; details: MTT; read-out: IC50 against HepG2
[8] = design: method as in PMID 30508794; details: MTT; read-out: IC50 against PC3
HeLa (cervical) = tested on: HeLa (cervical); design: method as in PMID 37935912; details: SRB; read-out: IC50 against HeLa
A549 (lung) = tested on: A549 (lung); design: method as in doi:10.1080/10426507.2020.1723590; details: MTT; read-out: IC50 against A549
[9] = tested on: HEK293T (embryonic kidney); design: method as in doi:10.1080/10426507.2020.1723590; details: MTT; read-out: IC50 against HEK293T
A2870s = tested on: A2870s; design: method as in PMID 28027532; details: MTT; read-out: IC50 against A2870s
A2870T “ovarian” = tested on: A2870T “ovarian”; design: method as in PMID 28027532; details: MTT; read-out: IC50 against A2870T
CT26 = tested on: CT26; design: method as in PMID 28027532; details: MTT; read-out: IC50 against CT26
HCT116 “colon” = tested on: HCT116 “colon”; design: method as in PMID 28027532; details: MTT; read-out: IC50 against HCT116
A549 “lung” = tested on: A549 “lung”; design: method as in PMID 28027532; details: MTT; read-out: IC50 against A549
MCF7 “breast” = tested on: MCF7 “breast”; design: method as in PMID 28027532; details: MTT; read-out: IC50 against MCF7
H1975 “lung” = tested on: H1975 “lung”; design: method as in PMID 28027532; details: MTT; read-out: IC50 against H1975
VERO-B (normal) cells = details: read-out: IC50 against VERO-B; MTT, normal cells
[10] = tested on: transplanted cancer (lung cancer); design: method as in PMID 32738990; details: 100, 200, 400 mg/kg

C[C@H]1CN(C(=O)OC(C)(C)C)[C@@]2(C(=O)Nc3cc(Cl)ccc32)[C@@H]([N+](=O)[O-])[C@@H]1c1ccc(Cl)cc1
% inhibition, MCF7 (MCF7): 93.03%
% inhibition, ZR-75-1 (ZR-75-1 (wild-type p53)): 82.28%
% inhibition, BT-474 [1]: 50.00%
inhibitory activity against MDM2 (MDM2 [2]): 84.86

O=C(C1=CCC(c2ccc(Br)cc2)C2(S1)C(=O)Nc1ccccc12)c1ccccc1 (centres unmarked) [150 (R^1 = H, R^2 = Ph, R^3 = 4-BrC6H4)]
IC50 (lung A549; read-out: IC50 against A549): 2100 nM
% inhibition, A549 (lung A549; at 10 μM): 75.1%
IC50 (breast MCF7; read-out: IC50 against MCF7): 6.8 µM
% inhibition, MCF7 (breast MCF7; at 10 μM): 69.4%
IC50 (colon HCT116; read-out: IC50 against HCT116): 1700 nM
% inhibition, HCT116 (colon HCT116; at 10 μM): 91.9%
Ki (MDM2 [3]): 43.8 µM

N.N.[Cl][Pt][Cl] [cisplatin, reference compound]
IC50 (HCT116 (colon) [4]): 12.6 ± 2 µM
IC50 (HepG2 (liver) [5]): 5.5 ± 1 µM
IC50 (PC-3 (prostate)): 5 ± 0.5 µM
IC50 (HCT116 (colon) [6]): 12.6 ± 0.5 µM
IC50 (HepG2 (liver) [7]): 5.5 ± 0.3 µM
IC50 [8]: 5 ± 0.56 µM
IC50 (HeLa (cervical)): 2000 ± 300 nM
IC50 (A549 (lung)): 44.1 ± 3.9 µM
IC50 [9]: 12.4 ± 3.9 µM
IC50 (A2870s): 20.9 µM
IC50 (A2870T “ovarian”): 27.3 µM
IC50 (CT26): 23.7 µM
IC50 (HCT116 “colon”): 17.4 µM
IC50 (A549 “lung”): 15.6 µM
IC50 (MCF7 “breast”): 7.8 µM
IC50 (H1975 “lung”): 9.7 µM
IC50 (VERO-B (normal) cells): 5 ± 0.2 µM

CN1C(=O)C2(C(C#N)=C(N)Oc3cc4oc(-c5ccccc5)cc(=O)c4c(O)c32)c2cc(Br)ccc21 (centres unmarked) [compound 128]
transplanted cancer in mice [10]: Inhibition of transplanted cancer in mice
